ChEMBL document CHEMBL5346973 (J Med Chem, 2023)
Where a SMILES comes first, the peptide text is derived from it.

Assays:
[1] = molecular target: Nicotinic acetylcholine receptor alpha9/alpha10 (Rattus norvegicus, UniProt P43144+Q9JLB5); experiment: Antagonist activity at rat alpha9alpha10 nACh receptor expressed in Xenopus oocyte assessed as inhibition of acetylcholine-induced response at -70 mV holding potential by voltage-clamp based electrophysiological assay; assay type: cell-based
[2] = molecular target: Neuronal acetylcholine receptor subunit alpha-7 (Rattus norvegicus, UniProt Q05941); experiment: Antagonist activity at rat alpha7 nACh receptor expressed in Xenopus oocyte assessed as inhibition of acetylcholine-induced response at -70 mV holding potential by voltage-clamp based electrophysiological assay; assay type: cell-based
Neuronal acetylcholine receptor subunit alpha-7, sequence (Q05941 whole entry): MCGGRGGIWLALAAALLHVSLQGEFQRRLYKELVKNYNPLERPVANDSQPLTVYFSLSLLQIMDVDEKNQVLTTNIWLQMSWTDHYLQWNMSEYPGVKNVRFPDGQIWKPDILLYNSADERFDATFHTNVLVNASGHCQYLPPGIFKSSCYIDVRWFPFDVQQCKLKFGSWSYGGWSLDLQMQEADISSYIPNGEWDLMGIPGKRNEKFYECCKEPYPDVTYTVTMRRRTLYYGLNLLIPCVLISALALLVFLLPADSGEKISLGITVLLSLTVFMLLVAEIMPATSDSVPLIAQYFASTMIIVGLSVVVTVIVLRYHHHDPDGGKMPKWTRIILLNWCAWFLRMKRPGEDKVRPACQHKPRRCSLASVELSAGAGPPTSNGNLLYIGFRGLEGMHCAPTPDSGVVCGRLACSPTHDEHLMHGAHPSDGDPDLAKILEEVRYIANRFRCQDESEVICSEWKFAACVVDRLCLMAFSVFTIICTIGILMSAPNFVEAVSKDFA

Nicotinic acetylcholine receptor alpha9/alpha10, sequence (P43144 whole entry): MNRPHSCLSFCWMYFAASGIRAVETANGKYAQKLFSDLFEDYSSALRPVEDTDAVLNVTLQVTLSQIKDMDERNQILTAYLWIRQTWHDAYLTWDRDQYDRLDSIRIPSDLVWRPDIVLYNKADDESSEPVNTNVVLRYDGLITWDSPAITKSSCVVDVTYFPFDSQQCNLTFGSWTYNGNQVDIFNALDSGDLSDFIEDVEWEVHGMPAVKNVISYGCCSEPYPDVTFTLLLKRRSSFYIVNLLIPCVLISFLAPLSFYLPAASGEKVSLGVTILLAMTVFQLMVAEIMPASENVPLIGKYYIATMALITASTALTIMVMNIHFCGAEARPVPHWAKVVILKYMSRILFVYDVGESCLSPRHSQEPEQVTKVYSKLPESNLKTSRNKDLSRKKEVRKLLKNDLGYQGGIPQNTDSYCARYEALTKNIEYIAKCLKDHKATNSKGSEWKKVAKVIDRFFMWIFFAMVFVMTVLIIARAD
Nicotinic acetylcholine receptor alpha9/alpha10, sequence (Q9JLB5 whole entry): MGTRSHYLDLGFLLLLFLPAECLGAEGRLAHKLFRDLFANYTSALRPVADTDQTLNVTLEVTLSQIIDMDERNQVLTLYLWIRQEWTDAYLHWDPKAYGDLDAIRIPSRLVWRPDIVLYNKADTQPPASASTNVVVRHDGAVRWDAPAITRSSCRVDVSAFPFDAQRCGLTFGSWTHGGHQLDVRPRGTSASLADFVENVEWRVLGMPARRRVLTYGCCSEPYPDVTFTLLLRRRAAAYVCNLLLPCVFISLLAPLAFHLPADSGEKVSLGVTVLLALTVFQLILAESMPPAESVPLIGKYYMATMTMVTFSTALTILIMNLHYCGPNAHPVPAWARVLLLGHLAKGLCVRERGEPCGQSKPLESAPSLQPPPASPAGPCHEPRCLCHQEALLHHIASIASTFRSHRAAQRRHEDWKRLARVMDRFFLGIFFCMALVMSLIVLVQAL

SMILES	IC50 [1] [µM]	IC50 [2] [µM]
CC[C@H](C)[C@@H]1NC(=O)[C@H](CCCNC(=N)N)NC(=O)[C@H](CCCNC(=N)N)NC(=O)[C@@H](NC(=O)[C@H](Cc2ccc(O)cc2)NC(=O)[C@H](CCCNC(=N)N)NC(=O)[C@H](CCCNC(=N)N)NC(=O)[C@H](CCCNC(=N)N)NC(=O)[C@H](CCCNC(=N)N)NC(=O)[C@H](CC(=O)O)NC(=O)[C@H](Cc2ccc(O)cc2)NC(=O)[C@@H]2CCCN2C(=O)[C@H](CO)NC(=O)[C@H](CCCNC(=N)N)NC(=O)[C@@H]2CSSC[C@H](NC(=O)[C@H](C)N)C(=O)N[C@@H](CCCNC(=N)N)C(=O)N[C@@H](CO)C(=O)N[C@@H](CO)C(=O)NCC(=O)N[C@@H](CCCNC(=N)N)C(=O)N[C@@H](Cc3ccc(O)cc3)C(=O)N2)CSSC[C@@H](C(=O)N[C@H](C(=O)O)C(C)C)NC(=O)[C@H](C)NC(=O)[C@H](CC(=O)O)NC(=O)[C@H]([C@@H](C)O)NC1=O	0.0081	1.08
CC[C@H](C)[C@@H]1NC(=O)[C@H](CCCNC(=N)N)NC(=O)[C@H](CCCNC(=N)N)NC(=O)[C@@H](NC(=O)[C@H](Cc2ccc(O)cc2)NC(=O)[C@H](CCCNC(=N)N)NC(=O)[C@H](CCCNC(=N)N)NC(=O)[C@H](CCCNC(=N)N)NC(=O)[C@H](CCCNC(=N)N)NC(=O)[C@H](CC(=O)O)NC(=O)[C@H](Cc2ccc(O)cc2)NC(=O)[C@@H]2CCCN2C(=O)[C@H](CO)NC(=O)[C@H](CCCNC(=N)N)NC(=O)[C@@H]2CSSC[C@H](NC(=O)[C@@H](N)[C@@H](C)O)C(=O)N[C@@H](CCCNC(=N)N)C(=O)N[C@@H](CO)C(=O)N[C@@H](CO)C(=O)N[C@@H](C)C(=O)N[C@@H](CCCNC(=N)N)C(=O)N[C@@H](Cc3ccc(O)cc3)C(=O)N2)CSSC[C@H](C(=O)N[C@H](C(=O)O)C(C)C)NC(=O)[C@H](C)NC(=O)[C@H](CC(=O)O)NC(=O)[C@H]([C@@H](C)O)NC1=O	0.0045	1.46
CC[C@H](C)[C@@H]1NC(=O)[C@H](CCCNC(=N)N)NC(=O)[C@H](CCCNC(=N)N)NC(=O)[C@@H](NC(=O)[C@H](Cc2ccc(O)cc2)NC(=O)[C@H](CCCNC(=N)N)NC(=O)[C@H](CCCNC(=N)N)NC(=O)[C@H](CCCNC(=N)N)NC(=O)[C@H](CCCNC(=N)N)NC(=O)[C@H](CC(=O)O)NC(=O)[C@H](Cc2ccc(O)cc2)NC(=O)[C@@H]2CCCN2C(=O)[C@H](CO)NC(=O)[C@H](CCCNC(=N)N)NC(=O)[C@@H]2CSSC[C@H](NC(=O)[C@@H](N)[C@@H](C)O)C(=O)N[C@@H](CCCNC(=N)N)C(=O)N[C@@H](C)C(=O)N[C@@H](CO)C(=O)NCC(=O)N[C@@H](CCCNC(=N)N)C(=O)N[C@@H](Cc3ccc(O)cc3)C(=O)N2)CSSC[C@@H](C(=O)N[C@H](C(=O)O)C(C)C)NC(=O)[C@H](C)NC(=O)[C@H](CC(=O)O)NC(=O)[C@H]([C@@H](C)O)NC1=O	0.014	1.42
CC[C@H](C)[C@@H]1NC(=O)[C@H](CCCNC(=N)N)NC(=O)[C@H](CCCNC(=N)N)NC(=O)[C@@H]2CSSC[C@H](NC(=O)[C@H](Cc3ccc(O)cc3)NC(=O)[C@H](CCCNC(=N)N)NC(=O)CNC(=O)[C@H](CO)NC(=O)[C@H](CO)NC(=O)[C@H](CCCNC(=N)N)NC(=O)[C@@H](NC(=O)[C@@H](N)[C@@H](C)O)CSSC[C@@H](C(=O)N[C@H](C(=O)O)C(C)C)NC(=O)[C@H](C)NC(=O)[C@H](CC(=O)O)NC(=O)[C@H]([C@@H](C)O)NC1=O)C(=O)N[C@@H](CCCNC(=N)N)C(=O)N[C@@H](CO)C(=O)N1CCC[C@H]1C(=O)N[C@@H](Cc1ccc(O)cc1)C(=O)N[C@@H](CC(=O)O)C(=O)N[C@@H](CCCNC(=N)N)C(=O)N[C@@H](CCCNC(=N)N)C(=O)N[C@@H](CCCNC(=N)N)C(=O)N[C@@H](CCCNC(=N)N)C(=O)N[C@@H](C)C(=O)N2	0.038	7.64
CC[C@H](C)[C@@H]1NC(=O)[C@H](CCCNC(=N)N)NC(=O)[C@H](CCCNC(=N)N)NC(=O)[C@@H]2CSSC[C@H](NC(=O)[C@H](Cc3ccc(O)cc3)NC(=O)[C@H](CCCNC(=N)N)NC(=O)CNC(=O)[C@H](CO)NC(=O)[C@H](CO)NC(=O)[C@H](CCCNC(=N)N)NC(=O)[C@@H](NC(=O)[C@@H](N)[C@@H](C)O)CSSC[C@@H](C(=O)N[C@H](C(=O)O)C(C)C)NC(=O)[C@H](C)NC(=O)[C@H](CC(=O)O)NC(=O)[C@H]([C@@H](C)O)NC1=O)C(=O)N[C@@H](CCCNC(=N)N)C(=O)N[C@@H](CO)C(=O)N1CCC[C@H]1C(=O)N[C@@H](Cc1ccc(O)cc1)C(=O)N[C@@H](C)C(=O)N[C@@H](CCCNC(=N)N)C(=O)N[C@@H](CCCNC(=N)N)C(=O)N[C@@H](CCCNC(=N)N)C(=O)N[C@@H](CCCNC(=N)N)C(=O)N[C@@H](Cc1ccc(O)cc1)C(=O)N2 (HELM PEPTIDE1{T.C.R.S.S.G.R.Y.C.R.S.P.Y.A.R.R.R.R.Y.C.R.R.I.T.D.A.C.V}$PEPTIDE1,PEPTIDE1,2:R3-27:R3|PEPTIDE1,PEPTIDE1,9:R3-20:R3$$$V2.0)	0.0047	7.64
CC[C@H](C)[C@@H]1NC(=O)[C@H](CCCNC(=N)N)NC(=O)[C@H](CCCNC(=N)N)NC(=O)[C@@H](NC(=O)[C@H](Cc2ccc(O)cc2)NC(=O)[C@H](CCCNC(=N)N)NC(=O)[C@H](CCCNC(=N)N)NC(=O)[C@H](CCCNC(=N)N)NC(=O)[C@H](CCCNC(=N)N)NC(=O)[C@H](CC(=O)O)NC(=O)[C@H](Cc2ccc(O)cc2)NC(=O)[C@H](C)NC(=O)[C@H](CO)NC(=O)[C@H](CCCNC(=N)N)NC(=O)[C@@H]2CSSC[C@H](NC(=O)[C@@H](N)[C@@H](C)O)C(=O)N[C@H](CCCNC(=N)N)C(=O)N[C@@H](CO)C(=O)N[C@@H](CO)C(=O)NCC(=O)N[C@@H](CCCNC(=N)N)C(=O)N[C@@H](Cc3ccc(O)cc3)C(=O)N2)CSSC[C@@H](C(=O)N[C@H](C(=O)O)C(C)C)NC(=O)[C@H](C)NC(=O)[C@H](CC(=O)O)NC(=O)[C@H]([C@@H](C)O)NC1=O	0.016	2.25
CC[C@H](C)[C@@H]1NC(=O)[C@H](CCCNC(=N)N)NC(=O)[C@H](CCCNC(=N)N)NC(=O)[C@@H]2CSSC[C@H](NC(=O)[C@H](Cc3ccc(O)cc3)NC(=O)[C@H](CCCNC(=N)N)NC(=O)CNC(=O)[C@H](CO)NC(=O)[C@H](CO)NC(=O)[C@H](CCCNC(=N)N)NC(=O)[C@@H](NC(=O)[C@@H](N)[C@@H](C)O)CSSC[C@@H](C(=O)N[C@H](C(=O)O)C(C)C)NC(=O)[C@H](C)NC(=O)[C@H](CC(=O)O)NC(=O)[C@H]([C@@H](C)O)NC1=O)C(=O)N[C@@H](CCCNC(=N)N)C(=O)N[C@@H](CO)C(=O)N1CCC[C@H]1C(=O)N[C@@H](C)C(=O)N[C@@H](CC(=O)O)C(=O)N[C@@H](CCCNC(=N)N)C(=O)N[C@@H](CCCNC(=N)N)C(=O)N[C@@H](CCCNC(=N)N)C(=O)N[C@@H](CCCNC(=N)N)C(=O)N[C@@H](Cc1ccc(O)cc1)C(=O)N2 (HELM PEPTIDE1{T.C.R.S.S.G.R.Y.C.R.S.P.A.D.R.R.R.R.Y.C.R.R.I.T.D.A.C.V}$PEPTIDE1,PEPTIDE1,2:R3-27:R3|PEPTIDE1,PEPTIDE1,9:R3-20:R3$$$V2.0)	0.02	4.68
